Molecular target: TAAR1 (Mus musculus (Mouse), UniProt Q923Y8)
Assay: Radioligand binding assay on TAAR1 (membranes of stably transfected HEK293 cells)
Settings: competition with [3H]-rac-2-(1,2,3,4-tetrahydro-1-naphthyl)-2-imidazoline, 4° C., 30 min
Procedure: For the construction of expression plasmids the coding sequences of human, rat and mouse TAAR 1 were amplified from genomic DNA essentially as described by Lindemann et al.. The Expand High Fidelity PCR System (Roche Diagnostics) was used with 1.5 mM Mg^2+ and purified PCR products were cloned into pCR2.1—TOPO cloning vector (Invitrogen) following the instructions of the manufacturer. PCR products were subcloned into the pIRESneo2 vector (BD Clontech, Palo Alto, Calif.), and expression vectors were sequence verified before introduction in cell lines.
HEK293 cells (ATCC # CRL-1573) were cultured essentially as described Lindemann et al. (2005). For the generation of stably transfected cell lines HEK293 cells were transfected with the pIRESneo2 expression plasmids containing the TAAR coding sequences (described above) with Lipofectamine 2000 (Invitrogen) according to the instructions of the manufacturer, and 24 hrs post transfection the culture medium was supplemented with 1 mg/ml G418 (Sigma, Buchs, Switzerland). After a culture period of about 10 d clones were isolated, expanded and tested for responsiveness to trace amines (all compounds purchased from Sigma) with the cAMP Biotrak Enzyme immunoassay (EIA) System (Amersham) following the non-acetylation EIA procedure provided by the manufacturer. […] Membrane Preparation and Radioligand Binding
Cells at confluence were rinsed with ice-cold phosphate buffered saline without Ca^2+ and Mg^2+ containing 10 mM EDTA and pelleted by centrifugation at 1000 rpm for 5 min at 4° C. The pellet was then washed twice with ice-cold phosphate buffered saline and cell pellet was frozen immediately by immersion in liquid nitrogen and stored until use at −80° C. Cell pellet was then suspended in 20 ml HEPES-NaOH (20 mM), pH 7.4 containing 10 mM EDTA, and homogenized with a Polytron (PT 3000, Kinematica) at 10,000 rpm for 10 s. The homogenate was centrifuged at 48,000×g for 30 min at 4° C. and the pellet resuspended in 20 ml HEPES-NaOH (20 mM), pH 7.4 containing 0.1 mM EDTA (buffer A), and homogenized with a Polytron at 10,000 rpm for 10 s. The homogenate was then centrifuged at 48,000×g for 30 min at 4° C. and the pellet resuspended in 20 ml buffer A, and homogenized with a Polytron at 10,000 rpm for 10 s. Protein concentration was determined by the method of Pierce (Rockford, Ill.). The homogenate was then centrifuged at 48,000×g for 10 min at 4° C., resuspended in HEPES-NaOH (20 mM), pH 7.0 including MgCl2 (10 mM) and […] homogenized with a Polytron at 10,000 rpm for 10 s.
Binding assay was performed at 4° C. in a final volume of 1 ml, and with an incubation time of 30 min. The radioligand [^3H]-rac-2-(1,2,3,4-tetrahydro-1-naphthyl)-2-imidazoline was used at a concentration equal to the calculated Kd value of 60 nM to give a bound at around 0.1% of the total added radioligand concentration, and a specific binding which represented approximately 70-80% of the total binding. Non-specific binding was defined as the amount of [^3H]-rac-2-(1,2,3,4-tetrahydro-1-naphthyl)-2-imidazoline bound in the presence of the appropriate unlabelled ligand (10 μM). Competing ligands were tested in a wide range of concentrations […]. […] Each experiment was performed in duplicate. All incubations were terminated by rapid filtration through UniFilter-96 plates (Packard Instrument Company) and glass filter GF/C, pre-soaked for at least 2 h in polyethylenimine 0.3%, and using a Filtermate 96 Cell Harvester (Packard Instrument Company). The tubes and filters were then washed 3 times with 1 ml aliquots of cold buffer B. Filters were not dried and soaked in Ultima gold (45 μl/well, Packard Instrument Company) and bound radioactivity was counted by a TopCount Microplate Scintillation Counter (Packard Instrument Company).

Chain of TAAR1 (Q923Y8 whole entry): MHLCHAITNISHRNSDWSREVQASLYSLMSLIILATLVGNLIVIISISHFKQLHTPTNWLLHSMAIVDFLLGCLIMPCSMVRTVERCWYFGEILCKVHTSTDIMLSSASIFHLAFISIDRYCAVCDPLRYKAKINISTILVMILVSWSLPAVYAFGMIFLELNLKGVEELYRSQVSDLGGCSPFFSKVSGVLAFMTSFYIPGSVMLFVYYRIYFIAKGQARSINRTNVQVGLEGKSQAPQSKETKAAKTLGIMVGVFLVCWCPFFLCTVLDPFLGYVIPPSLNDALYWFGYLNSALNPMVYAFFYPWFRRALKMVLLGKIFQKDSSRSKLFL

Ki	SMILES
0.0048 µM	NC1=N[C@@H](CCOc2ccc(Cc3ccccc3)cc2)CO1 [Example 47, (S)-4-[2-(4-Benzyl-phenoxy)-ethyl]-4,5-dihydro-oxazol-2-ylamine]
0.0065 µM	CC[C@@H](C[C@H]1COC(N)=N1)Oc1ccc(Cl)cc1F [Example 123, (S)-4-[(S)-2-(4-Chloro-2-fluoro-phenoxy)-butyl]-4,5-dihydro-oxazol-2-ylamine]
0.0037 µM	CC[C@@H](C[C@H]1COC(N)=N1)Oc1ccc(Cl)c(F)c1 [Example 113, (S)-4-[(S)-2-(4-Chloro-3-fluoro-phenoxy)-butyl]-4,5-dihydro-oxazol-2-ylamine]
0.0012 µM	C[C@@H](C[C@H]1COC(N)=N1)Oc1cccc(Cl)c1 [Example 68, (S)-4-[(S)-2-(3-Chloro-phenoxy)-propyl]-4,5-dihydro-oxazol-2-ylamine]
0.0006 µM	NC1=N[C@@H](CCC2(c3ccc(F)c(Cl)c3)CC2)CO1 [Example 91, (S)-4-{2-[1-(3-Chloro-4-fluoro-phenyl)-cyclopropyl]-ethyl}-4,5-dihydro-oxazol-2-ylamine]
0.008 µM	COC(=O)c1cccc(OCC[C@H]2COC(N)=N2)c1 [Example 127, 3-[2-((S)-2-Amino-4,5-dihydro-oxazol-4-yl)-ethoxy]-benzoic acid methyl ester]
0.008 µM	C[C@@H](C[C@H]1COC(N)=N1)Oc1ccc(F)c(F)c1 [Example 69, (S)-4-[(S)-2-(3,4-Difluoro-phenoxy)-propyl]-4,5-dihydro-oxazol-2-ylamine]
0.0031 µM	C[C@@H](CC[C@H]1COC(N)=N1)c1ccc(F)cc1 [Example 115, (S)-4-[(S)-3-(4-Fluoro-phenyl)-butyl]-4,5-dihydro-oxazol-2-ylamine]
0.0025 µM	NC1=N[C@@H](CCOc2ccc(Br)cc2)CO1 [Example 55, (S)-4-[2-(4-Bromo-phenoxy)-ethyl]-4,5-dihydro-oxazol-2-ylamine]
0.0007 µM	NC1=N[C@@H](CCOc2cc(F)cc(F)c2)CO1 [Example 130, (S)-4-[2-(3,5-Difluoro-phenoxy)-ethyl]-4,5-dihydro-oxazol-2-ylamine]
0.0009 µM	NC1=N[C@@H](CCC2(c3cc(F)cc(Cl)c3)CC2)CO1 [Example 143, (S)-4-{2-[1-(3-Chloro-5-fluoro-phenyl)-cyclopropyl]-ethyl}-4,5-dihydro-oxazol-2-ylamine]
0.0039 µM	NC1=N[C@@H](CCOc2ccc(Oc3ccccc3)cc2)CO1 [Example 36, (S)-4-[2-(4-Phenoxy-phenoxy)-ethyl]-4,5-dihydro-oxazol-2-ylamine]
0.004 µM	C[C@@H](C[C@H]1COC(N)=N1)Oc1ccc(F)cc1F [Example 74, (S)-4-[(S)-2-(2,4-Difluoro-phenoxy)-propyl]-4,5-dihydro-oxazol-2-ylamine]
0.001 µM	CCC(CC[C@H]1COC(N)=N1)c1cc(F)cc(F)c1 (stereo partly drawn) [Example 124, (4S)-4-[3-(3,5-Difluoro-phenyl)-pentyl]-4,5-dihydro-oxazol-2-ylamine]
0.001 µM	CC[C@@H](C[C@H]1COC(N)=N1)Oc1ccc(Cl)cc1 [Example 107, (S)-4-[(S)-2-(4-Chloro-phenoxy)-butyl]-4,5-dihydro-oxazol-2-ylamine]
0.0008 µM	NC1=N[C@@H](CCOc2cccc(OCc3ccccc3)c2)CO1 [Example 34, (S)-4-[2-(3-Benzyloxy-phenoxy)-ethyl]-4,5-dihydro-oxazol-2-ylamine]
0.0016 µM	NC1=N[C@@H](CCOc2ccc(-c3ccc(F)cc3)cc2)CO1 [Example 48, (S)-4-[2-(4′-Fluoro-biphenyl-4-yloxy)-ethyl]-4,5-dihydro-oxazol-2-ylamine]
0.0016 µM	CC[C@@H](C[C@H]1COC(N)=N1)Oc1ccccc1 [Example 109, (S)-4-((S)-2-Phenoxy-butyl)-4,5-dihydro-oxazol-2-ylamine]
0.0004 µM	NC1=N[C@@H](CCOc2cccc(C(=O)OCc3ccccc3)c2)CO1 [Example 136, 3-[2-((S)-2-Amino-4,5-dihydro-oxazol-4-yl)-ethoxy]-benzoic acid benzyl ester]

Further lines, the compound ahead of its results:

SMILES	Ki
CC[C@@H](C[C@H]1COC(N)=N1)Oc1ccc(Br)cc1 [Example 111, (S)-4-[(S)-2-(4-Bromo-phenoxy)-butyl]-4,5-dihydro-oxazol-2-ylamine]	0.001 µM
C[C@H](C[C@H]1COC(N)=N1)Oc1ccc(Cl)c(Cl)c1 [Example 96, (S)-4-[(R)-2-(3,4-Dichloro-phenoxy)-propyl]-4,5-dihydro-oxazol-2-ylamine]	0.0062 µM
NC1=N[C@@H](CCC2(c3ccc(F)c(F)c3)CC2)CO1 [Example 108, (S)-4-{2-[1-(3,4-Difluoro-phenyl)-cyclopropyl]-ethyl}-4,5-dihydro-oxazol-2-ylamine]	0.0014 µM
CC(OC[C@H]1COC(N)=N1)c1ccccc1 (stereo partly drawn) [Example 24, (4S)-4-(1-Phenyl-ethoxymethyl)-4,5-dihydro-oxazol-2-ylamine]	0.0084 µM
CC(C)(CC[C@H]1COC(N)=N1)c1ccc(Cl)cc1 [Example 26, (S)-4-[3-(4-Chloro-phenyl)-3-methyl-butyl]-4,5-dihydro-oxazol-2-ylamine]	0.0007 µM
NC1=N[C@@H](CCOc2cccc(-c3ccccc3)c2)CO1 [Example 33, (S)-4-[2-(Biphenyl-3-yloxy)-ethyl]-4,5-dihydro-oxazol-2-ylamine]	0.0018 µM
NC1=N[C@@H](CCOc2ccccc2)CO1 [Example 1, (S)-4-(2-Phenoxy-ethyl)-4,5-dihydro-oxazol-2-ylamine]	0.0017 µM
NC1=N[C@@H](CCOc2ccc(Cl)c(Cl)c2)CO1 [Example 57, (S)-4-[2-(3,4-Dichloro-phenoxy)-ethyl]-4,5-dihydro-oxazol-2-ylamine]	0.0003 µM
CC[C@@H](C[C@H]1COC(N)=N1)Oc1ccc(Cl)cc1Cl [Example 158, (S)-4-[(S)-2-(2,4-Dichloro-phenoxy)-butyl]-4,5-dihydro-oxazol-2-ylamine]	0.0011 µM
CC(C)(CC[C@H]1COC(N)=N1)c1ccccc1 [Example 7, (S)-4-(3-Methyl-3-phenyl-butyl)-4,5-dihydro-oxazol-2-ylamine]	0.0032 µM
C[Si](C)(CC[C@H]1COC(N)=N1)c1ccc(Cl)cc1 [Example 67, (S)-4-{2-[(4-Chloro-phenyl)-dimethyl-silanyl]-ethyl}-4,5-dihydro-oxazol-2-ylamine]	0.0046 µM
CCC(CC[C@H]1COC(N)=N1)c1ccccc1 (stereo partly drawn) [Example 14, (4S)-4-(3-Phenyl-pentyl)-4,5-dihydro-oxazol-2-ylamine]	0.0056 µM
CC(C)(CC[C@H]1COC(N)=N1)c1ccc(F)cc1 [Example 25, (S)-4-[3-(4-Fluoro-phenyl)-3-methyl-butyl]-4,5-dihydro-oxazol-2-ylamine]	0.003 µM
CC[C@@H](C[C@H]1COC(N)=N1)Oc1cc(F)c(F)cc1F [Example 152, (S)-4-[(S)-2-(2,4,5-Trifluoro-phenoxy)-butyl]-4,5-dihydro-oxazol-2-ylamine]	0.0029 µM
NC1=N[C@@H](CCOc2cccc(OC(F)(F)F)c2)CO1 [Example 19, (S)-4-[2-(3-Trifluoromethoxy-phenoxy)-ethyl]-4,5-dihydro-oxazol-2-ylamine]	0.0021 µM
Cc1cccc(OCC[C@H]2COC(N)=N2)c1 [Example 32, (S)-4-(2-m-Tolyloxy-ethyl)-4,5-dihydro-oxazol-2-ylamine]	0.0007 µM
NC1=N[C@@H](CCOc2cccc(C(F)(F)F)c2)CO1 [Example 4, (S)-4-[2-(3-Trifluoromethyl-phenoxy)-ethyl]-4,5-dihydro-oxazol-2-ylamine]	0.0009 µM
